Source: US5330992A, “1-cyclopropyl-4-pyridyl-quinolinones” (priority 1992, dated 1994)

What was measured:
[1] = test system: P388 murine leukemia cells; experiment: Malignant cell cytotoxicity, one-hour exposure (clonogenic survival in soft agar); format: cell-based; conditions: Mus musculus, 1 hr exposure, read-out: IC50 P388 1 hr. exp.
Description: (§1) Examples of compound I having Topo II activity were tested for malignant cell cytotoxicity. In vitro cytotoxicity was assayed by determining cell survival following exposure of P388 murine leukemia cells to a range of test compound concentrations. Cytotoxicity was quantitated following either a one-hour exposure or continuous exposure of P388 cells to test compound.
(§2) Cytotoxicity following a one-hour exposure of cells to drug was assayed by quantitating clonogenic cell survival according to a published procedure [Freshney, R. L. (1987) Culture of Animal Cells. A Manual of Basic Technique. Wiley-Liss Inc., New York, N.Y., pp. 140-144]. Briefly, following drug exposure cells were plated in soft agar and incubated (37°, 5% CO2) for 7-10 days during which time viable cells form visible colonies. Cytotoxicity following continuous exposure of cells to test compound was assayed by quantitating total P388 cells on a Coultier Counter following a 48-hour co-incubation of test compound with cells. P388 cells were maintained in log phase throughout the duration of cytotoxicity assays.
(§3) The percentage of cells surviving relative to an untreated control was graphed as a function of increasing drug concentration.

[2] = test system: B16 melanoma (B16); experiment: In vivo antitumor assay, B16(ip); design: species or system mouse; conditions: drug route ip; for ILS %: qd 1,5,9, increased life span; for LOG KILL: qd 1,5,9, log10 cell kill
Text: (§4) Mice: Inbred: C3H/He and NCR-nu; and Hybrids: B6D2Fl (C57BL/6 females X DBA/2 males, CD2Fl (Balb/c females X DBS/2 males) and B6x C3fl (C57BL/6 x C3H) were bred at Wayne State University from strained obtained from the Frederick Cancer Research Facility, Frederick, Md. or purchased from commercial suppliers.
(§5) Tumors: Murine Tumor: P388 and an adriamycin-resistant (ADR) subline P388/ADR leukemia and the following transplantable solid tumors of mice were used for in Vivo testing: B16 melanoma (B16), pancreatic ductal adenocarcinoma No. 03 (Panc 03), colon adenocarcinoma No. 38 (colo 38), mammary ductal adenocarcinoma No. 16/C (Mam16) and an adriamycin-resistantsubline Mam16C/ADR. Human tumor: A single human tumor, mammary carcinoma MX-1 (MX1) was used for in vivo testing. All tumors are in the Developmental Therapeutics Program frozen tumor respository, maintained by the Biological Testing Branch, Frederick Md. Each has a detailed description, code identification number, and list of references at the National Tumor Repository. Murine tumors were maintained in the mouse strain of origin and were transplanted in the appropriate F1 hydrid (or the strain of origin) for therapy trials. Human mammary carcinoma MX-1 MX1) was maintained as a subcutaneous implant in either athymic Swiss (Cr: NIH(S)-nu) or athymic random bred (NCR-nu) mice and transplanted in NCR-nu for therapy trials.
(§6) For P388 and P388/ADR leukemia studies the tumor cells were implanted either IP or intravenously (IV) on day zero and treatment was started on day one. For B16 melanoma (B16) studies, the tumor cells were implanted IP on day zero and treatment was started on day one. Tirered controls were also included to facilitate the calculation of tumor cell kill. For mammary carcinoma MX-1 studies, tumors were implanted with 1) subcutaneously (sc) (14-mg fragment of s.c. donor tumor) in the axillary region or 2) under the subrenal capsule (src) (10×10×10 ocular micrometer unit fragment of s.c. donor tumor). Treatment started on the day after subrenal capsule tumor implant or when the subcutaneous tumor implant had reached 100-700 mg.
(§7) Quantitative end points used assess antitumor activity included % Increased Life Span (% ILS), Tumor Cell Kill (Log10 kill), and Tumor Growth Inhibition (T/C). Long Term Survivors (45 or 60 day) were excluded from calculations of % ILS and Tumor Cell Kill.
(§8) Endpoints were calculated as follows: % ILS [formula] where Dt is the median day of death for treated and Dc is the median day of death for control groups. A % ILS ≥20 or ≥25 for P388 and B16 intraperitoneal models, respectively, is indicative of a significant degree of antitumor activity. A % ILS ≥75 or ≥50 for P388 and B16 intraperitoneal models, respectively, is indicative of a high degree of antitumor activity and is the level used by National Cancer Institute to justify further development if other requirements are met (termed DN-2 level activity). Minimum quantitative activity limits for additional P388 models (e.g. P388/ADR and P388, IJV) have not been defined. However, the activity limits specified for the intraperitoneal models may be applied as in the majority of instances these models are found to be signficantly […] challenging.
(§9) The log10 cell kill was calculated from the following formula: [formula] where T-C is the tumor difference in the median day of death between the treated (T) and the control (C) groups and Td is the tumor doubling time (in days), the latter estimated from the best fit straight line from a log-linear growth plot of the control-group tumors in exponential growth. The conversion of the T-C values to log10 cell kill is possible because the Td for tumors regrowing post-treatment approximated the Td values of the tumors in untreated control mice.

[3] = In vivo antitumor assay, B16(ip); design: species or system mouse; conditions: mouse, in vivo, drug route ip, qd 1,5,9
Text: as §4, §5, §6, §7, §8, §9

[4] = In vivo antitumor assay, Panc03(sc); design: species or system mouse; conditions: mouse, in vivo
Text: as §4, §5
(§10) Chemotherapy: For pancreatic ductal adenocarcinoma No. 3, colon adenocarcinoma No. 38 (colo38), lung carcinoma No. 12 (LC12) and both adriamycin-sensitive (RP) and -resistant ADR) mammary ductal adenocarcinoma No. 16 (Mam16) tumors, the following methods were used to help ensure a more uniform tumor burden per mouse (thus reducing the requirement for greater numbers of mice per group), bilateral tumor implants were used. The animals necessary to begin an experiment were pooled, implanted bilaterally s.c. on day zero with 30-60-mg tumor fragments using a 12-gauge trocar, and again pooled before randomization to the various treatment and control groups. Chemotherapy was started within three days after tumor implantation while the number of cells per mouse was relatively small (1×10^7 […]).
as §7, §9
(§11) Tumors were measured with a caliper once or twice weekly (as needed) until either tumors exceeded 1600 mg or cure was assured. Tumor weights were estimated from two-dimensional measurements: Tumor Weight (mg)=(a×b^2) / 2, where a and b are the tumor length and width (nun) respectively. Measurements were carried out simultaneously in both treatment and control groups. When the control group tumors reached approximately 750-1500 mg in size (median of group), the median tumor weight of each group was determined (including zeros). The T/C value in percent is an indiation of antitumor effectiveness. The % T/C was calculated from the following formula for solid murine tumor models: [formula] where T and C are median tumor weights of the treatment and control groups, respectively. A T/C equal to or less than 42% is considered significant antitumor activity. […]

[5] = test system: pancreatic ductal adenocarcinoma No. 03 (Panc 03); experiment: In vivo antitumor assay, Panc03(sc); design: species or system mouse
Text: as §4, §5, §10, §7, §9, §11

[6] = test system: P388 murine leukemia cells; experiment: Malignant cell cytotoxicity, continuous 48-hour exposure (Coulter Counter); format: cell-based; conditions: Mus musculus, read-out: IC50 P388 cont. exp.
Description: as §1, §2, §3

[7] = drug route iv, Ex 26 qd 4-11, Ex 30 qd 3-11, Ex 33 qd 3-4,7,10, read-out: MTD
[8] = drug route iv, Ex 26 qd 4-11, Ex 30 qd 3-11, Ex 33 qd 3-4,7,10

Row | Structure (SMILES) | IC50 [1] | ILS % [2] | LOG KILL [2] | MTD [3] | MTD [4, 7] | MTD ([4]; drug route sc, Ex 26 qd 3,5-7 bid 4, read-out: MTD) | T/C % [5, 8] | LOG KILL ([5]; drug route iv, qd 4-11, log10 cell kill) | T/C % ([5]; drug route sc, Ex 3 qd 3-12, Ex 26 qd 3,5-7 bid 4) | IC50 [6]
1 | Cc1cc(-c2c(F)cc3c(=O)c(Cc4c(O)cccc4O)cn(C4CC4)c3c2F)cc(C)n1 [Example 26, 1-Cyclopropyl-6,8-difluoro-7-[2,6-dimethyl-4-pyridinyl]-3-[2,6-dihydroxyphenylmethyl]-1,4-dihydroquinoline-4-one] | 0.25 µM | 94% | 2.2 | 8.1 mg/kg | 12 mg/kg | 840 mg/kg | 0% | 1.7 | 19% | 0.055 µM
2 | Cc1cc(-c2c(F)cc3c(=O)c(Cc4ccccc4O)cn(C4CC4)c3c2F)cc(C)n1 [Example 30] | 0.67 µM | 88% | 2.0 | 304 mg/kg | 235 mg/kg | – | 5% | – | – | 0.29 µM
3 | Cc1cc(-c2c(F)cc3c(=O)c(Cc4ccc(O)cc4O)cn(C4CC4)c3c2F)cc(C)n1 [Example 33] | 0.21 µM | 94% | 2.2 | 19 mg/kg | 19 mg/kg | – | 73% | – | – | 0.061 µM
